In publication PMC4399336 (2015) one finds binding data, which are given here for one compound.

For the experiment, the system named is 15 base pair dsDNA, double labeled (Alexa488 / Alexa568) (DNA, duplex) GGAGACCAGAGGCCT/AGGCCTCTGGTCTCC
The experiment is described as follows: FRET and fluorescence lifetime titration (donor 517 nm, acceptor 600 nm). Particulars: 20 °C; 1 μM DNA; intercalation, qualitative; end-to-end distance ratio r1/r0 1.028; buffer not stated.

Regarding `[Ru+2].c1ccc(-c2ccccn2)nc1.c1ccc(-c2ccccn2)nc1.c1ccc2nc3c4cccnc4c4ncccc4c3nc2c1`, the binding entry is recorded as “yes”.
